{"source": "patent US10201528B2", "about": "“Method of treating multiple sclerosis” (Assistance Publique Hopitaux De Paris, priority 2012, dated 2019)", "key": {"multiple sclerosis": {"test_system": "multiple sclerosis", "conditions": "attacks less numerous and less severe, improvement of lesions visible by MRI; cited from earlier work"}, "[1]": {"test_system": "patients with a progressive form of multiple sclerosis", "assay": "Clinical cases: patients with progressive multiple sclerosis treated with biotin", "assay_type": "in vivo, human", "protocol": "Three patients with a progressive form of multiple sclerosis received biotin. […]\nA person, without any particular personal history. […] Treatment with interferon Ib (betaferon) began in February 2008.\nThree Solumedrol infusions were carried out in September 2010 and then 4 infusions between 8 and 11 Aug.\nTreatment with biotin was then introduced on 6 Mar. 2012 at the dose of 100 mg/day until March 30 and then 200 mg/day from April 6 to 6 May 2012 then 300 mg/day from 6 May 2012 to 7 Jun. 2012. Two complete ophthalmological examinations were carried out during this period of time: a first on 30 Mar. […]"}, "[2]": {"conditions": "patient 1, after six months of treatment"}, "[3]": {"conditions": "patient 1, biotin 100 mg three times a day, three months"}}, "note": "“Also recorded” adds a separate entry of the source."}
{"compound": "glatiramer acetate", "values": [{"measurement": "efficacy in multiple sclerosis", "setting": "multiple sclerosis", "value": "proven to be effective"}]}
{"compound": "O=C(O)CCCC[C@@H]1SC[C@@H]2NC(=O)N[C@@H]21", "note": "[biotin]", "values": [{"measurement": "brain MRI spectro: choline peak and choline/creatine ratio", "setting": "[1]; [2]", "value": "clear decrease"}, {"measurement": "visual evoked potentials: P100 wave on the right", "setting": "[1]; [2]", "value": "beginnings of a P100 wave on the right"}, {"measurement": "visual evoked potentials: latency of left P100 wave", "setting": "[1]; patient 1, biotin 100 mg three times a day, after six months of treatment", "value": 111.8, "unit": "ms"}, {"measurement": "MRI and brain MRI spectro", "setting": "[1]; [3]", "value": "unchanged"}, {"measurement": "balance", "setting": "[1]; [3]", "value": "more assured"}, {"measurement": "visual evoked potentials: P100 wave on the left", "setting": "[1]; [3]", "value": "reappearance of a P100 wave on the left"}, {"measurement": "visual evoked potentials: P100 wave on the right", "setting": "[1]; [3]", "value": "no response was noted on the right"}, {"measurement": "visual evoked potentials: latency of left P100 wave", "setting": "[1]; [3]", "value": 126.5, "unit": "ms"}, {"measurement": "visual acuity on the left", "setting": "[1]; patient 1, biotin 100 mg three times a day, three months later (before treatment 2/10 on the left)", "value": "2/10"}, {"measurement": "visual acuity on the right", "setting": "[1]; patient 1, biotin 100 mg three times a day, three months later (before treatment could only count fingers on the right)", "value": "5/10"}, {"measurement": "visual evoked potentials: P100 wave", "setting": "[1]; patient 1, biotin increased to 600 mg/day, after nine months of treatment", "value": "bilateral P100 wave was noted"}, {"measurement": "motor problems", "setting": "[1]; patient 1, discussion", "value": "corrected and were stabilized"}, {"measurement": "balance between beginning of treatment and last visit", "setting": "[1]; patient 1, long-term treatment", "value": "also remained stable"}, {"measurement": "visual acuity between beginning of treatment and last visit", "setting": "[1]; patient 1, long-term, 300 mg/day for 15 months then 100 mg/day for 9 months", "value": "remained stable"}, {"measurement": "visual acuity compared with examination before treatment", "setting": "[1]; patient 2, biotin 100 mg/day from 6 Mar. 2012, examination 30 Mar. 2012", "value": "no improvement"}, {"measurement": "visual field (automated campimetry): homonymous lateral hemianopsia", "setting": "[1]; patient 3, biotin 100 mg/day begun 12 Apr. 2012, examination 30 Jun. 2012", "value": "improvement in the visual field in the upper left quadrant; also recorded: clear improvement"}, {"measurement": "time to improvement after introduction of the treatment", "setting": "[1]; the three patients", "value": "within three months"}]}
{"compound": "C[C@H]1C[C@@H]2[C@H]([C@@H](O)C[C@@]3(C)[C@H]2CC[C@]3(O)C(=O)COC(=O)CCC(=O)O)[C@@]2(C)C=CC(=O)C=C12", "note": "[Solumedrol]", "values": [{"measurement": "diplopia-type attack", "setting": "[1]; patient 2, July 2008, infusions", "value": "regressive"}, {"measurement": "progressive decrease in visual acuity", "setting": "[1]; patient 2, three infusions September 2010 and 4 infusions 8-11 Aug. 2011, before biotin", "value": "without any effect"}, {"measurement": "evolvement of left homonymous lateral hemianopsia", "setting": "[1]; patient 3, 2004, after 3 infusions, symptomology subsequently reappeared", "value": "initially been favourable"}]}
